Measurements taken from paper PMC8044192 (Scientific Reports, 2021).

What was measured:
[1] = Study 2: body weight and food intake in DIO mice, 14 days of treatment then 6 days of wash-out; type: in vivo, C57BL/6J mice; conditions: linagliptin 3 mg/kg or Y2R agonist 3 or 30 nmol/kg s.c. once daily for 14 days
Method: (§1) The Danish Animal Experiments Inspectorate approved all experiments which were conducted using internationally accepted principles for the use of laboratory animals (license #2013-15-2934-00784). The study was carried out in compliance with the ARRIVE guidelines. 99 C57BL/6J mice were from Janvier Labs (Le Genest Saint Isle, France) and housed in a controlled environment (12 h light/dark cycle, lights on at 3 AM, 21 ± 2 °C, humidity 50 ± 10%). Each animal was identified by an implantable subcutaneous microchip (PetID Microchip, E-vet, Haderslev, Denmark). Mice arrived at 5 weeks of age and were made diet-induced obese (DIO) by offering ad libitum access to tap water and high-fat diet (5.15 kcal/g; 60 kcal-% fat, 20 kcal-% carbohydrate, 20% kcal-% protein; D12492, Ssniff, Soest, Germany) for 26–27 weeks before study start. The mice were kept on the diet throughout the study.
(§2) DIO mice were randomized into individual treatment groups (n = 9–10 per group) based on body weight measured 3 days prior to initiation of drug treatment. Vehicle was phosphate-buffered saline added 5% mannitol. […] All drugs were administered once daily at 1 h before lights off. The first dose was given on day 0. Body weight and food intake was monitored daily during the treatment period.

[2] = Study 1: body weight and food intake in DIO mice, linagliptin monotreatment for 14 days; type: in vivo, C57BL/6J mice; conditions: linagliptin 3 mg/kg/day s.c.
Method: as §1, §2

[3] = Oral glucose tolerance test in DIO mice; type: in vivo, C57BL/6J mice; conditions: study 2; treatment day 12; 4 h fast; 2 g/kg oral glucose; blood glucose 0–240 min; compared to vehicle dosing
Method: In study 2, an oral glucose tolerance test (OGTT) was performed one week prior to treatment start (day -7) and on treatment day 12. Animals were fasted for 4 h prior to OGTT. At t = 0 an oral glucose load (2 g/kg glucose; 200 mg/mL, Fresenius Kabi, Sweden) was administered via a gastrically placed tube. Blood samples for measuring blood glucose were collected from the tail vein at t = 0, 15, 30, 60, 120, 180, 240 min. A pre-OGTT blood sample was collected at − 60 min (OGTT on day − 7) and − 240 min (OGTT on treatment day 12). Glucose area under the curve (AUC) calculations were determined as total AUC from the sampling period of 0 to 240 min.

[4] = Linagliptin exposure in plasma by LC-MS/MS; type: in vivo, C57BL/6J mice; conditions: DIO mice, 3 mg/kg/day s.c. once daily, day 14, before (approx. 24 h after previous dose) and 4 h after last dose
[5] = Plasma analytes in DIO mice (active GLP-1, GIP, insulin, metabolic markers); type: in vivo, C57BL/6J mice; conditions: study 1, linagliptin 3 mg/kg/day s.c., 4 h post-dosing
Method: Terminal cardiac blood samples were collected in EDTA-coated tubes with (for GLP-1 and GIP analysis) or without (for DPP-IV enzyme analysis) 10 µl DPP-IV inhibitor/ml blood (Millipore, Copenhagen, Denmark) prior to sampling. Plasma was separated by centrifugation (3000 × g for 10 min at 4 °C) and immediately frozen on dry ice and stored at − 80 °C until further analysis. DPP-IV enzyme catalytic activity was determined as reported previously. Active GLP-1 and GIP levels were assessed by ELISA (#K150JWC, MesoScale Discovery, Rockville, MD; #27702, IBL, Fujioka, Japan) according to the manufacturer’s instructions. Plasma levels of insulin were measured by ELISA (#K152BZC, MesoScale Discovery, Rockville, MD), according to the manufacturer’s instructions.

DPP-IV = target: T1, DPP-IV (Homo sapiens, UniProt P27487); assay: Degradation of synthetic NPY1–36 and PYY1–36 in human plasma (control samples); type: in vitro ADME; conditions: 30 pmol peptide in 85 µl PBS + 5 µl human EDTA-plasma, 37 °C, no linagliptin, MALDI-TOF-MS
T1 construct: Human plasma was used as source of endogenous DPP-IV; from tissue; host or cells: human EDTA-plasma from healthy adult donors
Method: Human plasma was used as source of endogenous DPP-IV. Healthy adult individuals were enrolled after they provided written informed consent. […] Blood samples were collected from the cubital vein into blood collection tubes (EDTA-plasma). […] Plasma aliquots were transferred into 2 ml vials and stored − 80 °C. […] Parent NPY, PYY and corresponding fragments were determined by matrix-assisted laser desorption/ionization time-of-flight mass spectrometry (MALDI-TOF–MS) as described previously[34].

[6] = tested on: dipeptidyl peptidase IV (DPP-IV); conditions: in the circulation; inactivation by DPP-IV; cited from earlier work
From the text: Defective pancreatic β-cell function is a key pathological hallmark in type 2 diabetes (T2D). Because progressive loss of β-cell insulin secretory capacity is associated with worsening hyperglycemia, targeting intrinsic β-cell activity is considered essential in T2D management. A canonical role of the gut-derived incretin hormone glucagon-like peptide-1 (GLP-1) is potentiation of glucose-stimulated insulin secretion by activation of GLP-1 receptors in islet β-cells. The incretin effect is estimated to account for approximately 50–70% of total insulin secreted following oral glucose administrat ...

T1 sequence (P27487 39-766 limits assumed): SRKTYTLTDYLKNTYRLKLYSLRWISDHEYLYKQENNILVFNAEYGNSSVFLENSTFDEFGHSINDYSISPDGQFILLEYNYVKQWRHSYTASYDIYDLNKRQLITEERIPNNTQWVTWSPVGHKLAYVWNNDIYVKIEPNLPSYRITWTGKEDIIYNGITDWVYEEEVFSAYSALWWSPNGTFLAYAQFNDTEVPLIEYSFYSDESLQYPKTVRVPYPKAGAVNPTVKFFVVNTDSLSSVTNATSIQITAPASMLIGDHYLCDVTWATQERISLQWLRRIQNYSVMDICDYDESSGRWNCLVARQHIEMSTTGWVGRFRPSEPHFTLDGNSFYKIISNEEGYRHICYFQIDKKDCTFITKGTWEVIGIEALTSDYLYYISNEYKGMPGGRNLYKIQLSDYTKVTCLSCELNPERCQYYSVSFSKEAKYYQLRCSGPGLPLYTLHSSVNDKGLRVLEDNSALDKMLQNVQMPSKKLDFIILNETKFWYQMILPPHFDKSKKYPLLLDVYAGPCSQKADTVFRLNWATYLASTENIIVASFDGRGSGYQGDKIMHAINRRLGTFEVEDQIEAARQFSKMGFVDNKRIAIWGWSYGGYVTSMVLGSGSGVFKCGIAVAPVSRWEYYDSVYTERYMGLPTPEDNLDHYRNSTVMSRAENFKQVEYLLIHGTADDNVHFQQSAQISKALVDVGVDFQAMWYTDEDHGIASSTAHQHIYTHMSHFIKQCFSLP

## CC#CCn1c(N2CCC[C@@H](N)C2)nc2c1c(=O)n(Cc1nc(C)c3ccccc3n1)c(=O)n2C [linagliptin]
[1]
  food intake: did not influence food intake
[2]; 14 days
  food intake: essentially unaffected
[2]; 14 days of treatment, p < 0.05
  weight loss compared to vehicle controls: 2.8%
[3]
  oral glucose tolerance: significantly improved glucose tolerance
[4]
  plasma linagliptin exposure: ~ 200 nM
[5]; day 14
  terminal plasma insulin levels: unaffected
[5]; terminal, 14 days
  plasma TNF-α concentration: significantly reduced
  plasma pancreatic polypeptide: unaffected
  plasma resistin concentration: significantly reduced
  plasma total PYY: unaffected

## PYY: synthetic human full-length PYY1–36 used as DPP-IV substrate [peptide YY]
DPP-IV; 18 h
  fraction of PYY processed: 30%-50%

## glucagon-like peptide-1 [GLP-1_7–36]
[6]
  circulatory half-life: approximately 1 min

## neuropeptide Y [NPY]
DPP-IV; 8 h
  fraction of NPY processed by DPP-IV: approximately two-thirds
